Patent US20240002846A1, “COMPOSITIONS AND METHODS FOR THE DIAGNOSIS AND TREATMENT OF ITCH” (Duke University, priority 2020, published 2024)
“Also recorded” adds a separate entry of the source.

Tests used:
mice = test: Effect of inhibitor pretreatment on LPA-, LPC- or miR-146a-induced scratching behavior; assay type: in vivo, mouse
[1] = test system: extracellular release of miR-146a; test: Extracellular release of miR-146a from cultured human keratinocytes (RT-qPCR); assay type: cell-based
Experimental: Primary human keratinocytes were cultured as previously described (Chen et al. J. Biol. Chem. 2016, 291, 10252-10262). In brief, surgically discarded foreskin samples, obtained from Duke Children's Hospital in accordance to institutionally approved IRB protocol, were incubated with Dispase (Gibco, Gaithersburg, MD, 4 U/mL) for 12-16 h at 4° C. followed by 0.05% trypsin (Gibco, Gaithersburg, MD) for 10-20 min at 37° C. Cells were maintained in keratinocyte serum-free media (Invitrogen, Waltham, MA) with 5% CO2 at 37° C. and used at passage 2-3.
Measurement of released vesicles and extracellular miR-146a from cultured keratinocytes or sera Medium for the cultured keratinocytes was replaced with serum-free medium 2 h before LPC stimulation. Fifteen minutes after LPC, the supernatant of the cells was harvested and subjected to two steps of centrifugation (i) 300 g for 5 min to eliminate remaining cells, (ii) 16,000 g for 30 min to eliminate cell debris and apoptotic bodies. Finally, cell-free supernatants were further purified using a Vesicular Isolation kit (Invitrogen, Waltham, MA) according to the manufacturer's instructions, with final product resuspended in ice-cold PBS. Total RNA extraction was then carried out using a Total RNA Isolation kit (Invitrogen, Waltham, MA). […]

SMILES | effect on LPC-induced itch (TRPV4 inhibitors) (mice; WT mice, i.p. pretreatment 20 mg/kg) | effect on LPA (18:1)-induced itch (mice; WT mice, i.p. pretreatment 20 mg/kg, LPA 500 μg i.d.) | effect on LPC-induced itch (TRPV4 inhibitors) (mice; WT mice, i.p. pretreatment 20 mg/kg, listed as HC067) | effect of TRPV4 inhibitors on LPC-induced release of miR-146a ([1]; inhibitor 10 μM) | effect on LPC-induced itch (MEK inhibitor) (mice; i.d. pretreatment 20 μg/50 μL) | effect of MEK inhibitor on LPC-induced release of miR-146a ([1]; 10 μM)
Cc1c(C(=O)Nc2cccc(C(F)(F)F)c2)cc(-c2ccccc2)n1CCCN1CCOCC1 [HC067047] | a reduction | no significant reduction in scratching; also recorded: not significantly altered | significantly reduced | completely eliminated |  | 
N#CC(=C(/N)Sc1ccccc1N)/C(C#N)=C(\N)Sc1ccccc1N [U0126] |  |  |  |  | significant reduction; also recorded: significantly attenuated | eliminated; also recorded: abolished
